Data reported in US20110009628A1, “Compounds and Compositions for Modulating Lipid Levels and Methods of Preparing Same” (priority 2009, published 2011).
Where a name gives a salt, the structure may show the parent alone. Marks after values point to notes of the source that are not given here.

Tests used:
[1] = tested on: liver PCSK9 mRNA; test: Liver PCSK9 mRNA in treated hamsters, quantitative real-time RT-PCR; assay type: in vivo, hamster; settings: 100 mg/kg, 2 weeks, 10 animals per group
Experimental: (§1) To directly correlate the LDL-C and VLDL-C lowering effects of Compound 162 with its ability to upregulate hepatic LDLR expression and down-regulation of PCSK9, at the end of treatment, animals from vehicle and Compound 162 100 mg/kg treated groups were euthanized and levels of liver LDLR and PCSK9 mRNA were individually assessed by quantitative real-time RT-PCR using hamster specific probes. The results represent mean±SEM of 10 animals per group. The liver expression of LDLR mRNA was increased 1.7-fold over control by Compound 162 treatment (p<0.001). […] Thus, these in vivo data confirmed the in vitro effects of Compound 162 in upregulating LDLR mRNA while inhibiting PCSK9 mRNA expressions.

[2] = tested on: LDLR mRNA expression in HepG2 cells; test: LDLR mRNA expression in HepG2 cells, Compounds 162 and 163, real-time RT-PCR (Example 13); assay type: cell-based, human; settings: FIGS. 6A and 6B
Experimental: In FIG. 6A HepG2 cells were exposed to Compounds 162 and 163 at the indicated concentrations (x-axis) for 24 h and plotted against normalized LDLR mRNA levels (fold of control in absence of compound). In FIG. 6B, HepG2 cells were treated with 20 μM of each compound for the indicted times (x-axis) and plotted against normalized LDLR mRNA levels (fold of control at 24 h).
The time- and dose-dependent effects of the enantiomers of Compound 127 (Compounds 162 and 163) on LDLR mRNA expression were examined using quantitative real-time RT-PCR assays (FIGS. 6A and 6B). HepG2 cells were treated with Compound 162 and Compound 163 at indicated concentrations for various times. Total RNA was isolated and […] was used to generate cDNA in a reaction containing random primers and M-MLV at 37° C. for 1 h in a volume of 25 μL. Real-time PCR was performed on the cDNA using MCEP REALPLEX 2 SYSTEM (Eppendorf) and Universal MasterMix (Applied Biosystems). Human LDLR and GAPDH Pre-Developed TaqMan Assay Reagents (Applied Biosystems) were used to assess the levels of mRNA expressions in HepG2. The levels of LDLR mRNA were normalized to that of GAPDH. Each RNA samples was assayed in triplicate. The fold activity was calculated by dividing mRNA abundance in compound treated cells with that of control.

[3] = tested on: LDLR protein expression in HepG2 cells; test: Western blot of LDLR protein in HepG2 cells, Compounds 162 and 163; assay type: cell-based, human; settings: 20 μM, 16 or 24 hours, FIG. 7
Experimental: (§2) FIG. 7 is a Western blot analysis of LDLR and PCSK9 expression in HepG2 cells. HepG2 cells seeded in 12-well culture plates were cultured in 0.5% FBS MEM overnight. Compounds 162 and 163 at 20 μM were added to cells for the indicated times. Untreated and treated cells were harvested at the same indicated time points. Total cell lysates were isolated and 50 μg per sample was analyzed for LDLR and PCSK9 protein abundance by western blotting. The membrane was reprobed with anti-actin antibody to examine the equal loading of cell lysates.
Chicken anti-LDLR was purchased from Abcam. HepG2 cells cultured in 60-mm dishes were incubated overnight in medium containing 0.5% fetal bovine serum prior to the addition of compounds at 20 μM concentration. After 16 or 24 hours of treatment, total cell lysate was isolated and 50 μg of protein was separated on SDS-PAGE and transferred to nitrocellulose membrane for immunoblotting with anti-LDLR.

[4] = tested on: cholesterol 7α-hydroxylase (CYP7A) mRNA; test: Liver cholesterol 7α-hydroxylase (CYP7A) mRNA in treated hamsters, real-time PCR; assay type: in vivo, hamster; settings: 100 mg/kg, 2 weeks, p<0.01
From the text: The conversion of cholesterol to bile acids by the liver and their subsequent excretion in the feces represent a major route for the elimination of sterol from the body. The cholesterol 7α-hydroxylase is the first and rate-limiting enzyme in the bile acid biosynthetic pathway. The measurement of the mRNA expression level of cholesterol 7α-hydroxylase (CYP7A) is widely used as a means to monitor bile acid synthesis in liver. To assess the effect of Compound 162 on liver bile acid synthesis, the mRNA levels of CYP7A were measured in vehicle and liver samples from hamsters treated with 100 mg/kg Compound 162 by real-time PCR as described above.

[5] = tested on: PCSK9 protein expression in HepG2 cells; test: Western blot of PCSK9 protein in HepG2 cells, Compounds 162 and 163; assay type: cell-based, human; settings: 20 μM, time-dependent, FIG. 7
Experimental: as §2
Recent studies have identified the liver secreted serine protease PCSK9 (proprotein convertase subtilisin type 9) as a natural inhibitor of LDLR protein expression that degrades hepatic LDLR protein, thus increasing circulating LDL-C levels.

[6] = tested on: liver LDLR mRNA; test: Liver LDLR mRNA in treated hamsters, quantitative real-time RT-PCR; assay type: in vivo, hamster; settings: 100 mg/kg, 2 weeks, 10 animals per group, p<0.001
Experimental: as §1

[7] = tested on: Hyperlipidemic Hamsters; test: Serum lipids and biochemistry in hyperlipidemic hamsters on high fat high cholesterol diet, 2 weeks oral Compound 162; assay type: in vivo, Golden Syrian Hamsters; settings: for ALT / AST / BUN / Bil-T / Creatinine / Glucose / HDL-C / TC / TG: serum, HFHC feeding, n = 10
Experimental: Male hamsters were fed a cholesterol-enriched diet for 14 days before the daily oral feeding of Compound 162 at 30, 60, and 100 mg/kg, or an equal volume of vehicle for 2-weeks. Serum samples were collected after 2 weeks of treatment and analyzed for TC, TG, and HDL-C. The data shown are mean±SEM of 10 hamsters per group (* p<0.05, ** p<0.01 compared to untreated control group).
Male Golden Syrian Hamsters were used as an animal model to examine the in vivo effects of Compound 162 in plasma lipid levels. In one experiment, 40 male hamsters under a high fat and high cholesterol diet were divided into 4 groups of 10 hamsters per group. Group 1 was given vehicle only and groups 2-4 were given Compound 162 at 30, 60, and 100 mg/kg/day by an orogastric tube for 2 weeks. At the end of treatment, hamsters were sacrificed and blood and sera were collected to measure lipid levels and several critical parameters of liver function and kidney function.

[8] = 100 mg/kg, 2 weeks, hamsters, FIG. 8

## COc1cc2c(cc1OC)C1Cc3ccc(OC)c(OS(=O)(=O)c4cccc(F)c4)c3CN1CC2 (single isomer, unassigned) [Compound 162, 2,3,10-Trimethoxy-5,6,7,8,13,13a-hexahydroisoquinolino[2,1-b]isoquinolin-9-yl 3-fluorobenzenesulfonate phosphate Salt (Enantiomer having positive optical rotation)]
[1]
  liver mRNA levels of PCSK9: 57 % of vehicle control
[2]
  LDLR mRNA expression: upregulate LDLR mRNA expression
  LDLR mRNA expression, comparison of the enantiomers: more active than Compound 163
[3]
  LDLR mRNA and protein expression: significantly enhance
[4]
  CPY7A mRNA expression in liver versus vehicle control: 2.7 fold
[5]
  PCSK9 cellular levels: greatly decreased
[6]
  liver expression of LDLR mRNA: 1.7 fold over control
[7]; [8]
  increase of HDL-C: 21%
  reduction of serum TC: 46%
  reduction of serum TG: 63.7%
[7]; 30, 60, 100 mg/kg/day, hamsters fed the HFHC diet, FIGS. 9A and 9B
  VLDL-C, LDL-C in pooled serum (HPLC lipoprotein profile): dose-dependently lowered
[7]; hamsters, 2 weeks
  Blood glucose level: not changed
  kidney function: improved
  serum levels of AST and ALT versus control group: statistically lower
[7]; 30 mkg, 2 weeks
  ALT: 441 ± 401 IU/L
  AST: 202.0 ± 135 IU/L
  BUN: 4.5 ± 0.9 mmol/L
  Bil-T: 0.6 ± 1.0 µmol/L
  Creatinine: 17.8 ± 6.1* umol/L
  Glucose: 3.8 ± 0.8 mmol/L
  HDL-C: 3.9 ± 0.5 mmol/L
  TC: 19.0 ± 10.1 mmol/L
  TG: 9.4 ± 9.2 mmol/L
[7]; 60 mkg, 2 weeks
  ALT: 353 ± 250 IU/L
  AST: 151.5 ± 61 IU/L
  BUN: 5.0 ± 0.7 mmol/L
  Bil-T: 0.3 ± 0.3* umol/L
  Creatinine: 15.7 ± 4.2** umol/L
  Glucose: 5.0 ± 1.0 mmol/L
  HDL-C: 3.9 ± 0.5 mmol/L
  TC: 16.9 ± 8.7* mmol/L
  TG: 7.6 ± 8.1* mmol/L
[7]; 100 mkg, 2 weeks
  ALT: 376 ± 262 IU/L
  AST: 150.4 ± 42 IU/L
  BUN: 4.8 ± 0.7 mmol/L
  Bil-T: 0.2 ± 0.2* umol/L
  Creatinine: 15.3 ± 3.2** umol/L
  Glucose: 5.0 ± 1.3 mmol/L
  HDL-C: 4.2 ± 0.5** mmol/L
  TC: 16.4 ± 5.8*** mmol/L
  TG: 6.7 ± 5.2* mmol/L
